# Columns and labels:
# [1] = target: T1, recombinant human 5-HT4 receptor (Homo sapiens, UniProt Q13639); assay: Determination of EC50 values for 5-HT4 receptor (CHO cells, pCRE-Luc reporter); assay type: cell-based; details: CHO
# T1 construct: expressed in transfected cells
# Summary of the method: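 CHO cells stably expressing human 5-HT4 receptor with a CRE-luciferase reporter, serum-starved overnight, then exposed to increasing compound concentrations in OptiMEM for 4 h at 37 °C. Cells lysed and luciferase luminescence plotted against concentration.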
# [2] = system: sAPPα; assay: Estimation of mice brain cortical sAPPα levels (ELISA); assay type: in vivo; details: s.c., 60 minutes post treatment
# Method: The control group of mice received sterile water for injection subcutaneously (s.c.). […] Mice were sacrificed 60 minutes after the drug injection by cervical dislocation, the brains were quickly isolated and the cortex was dissected at −20° C. The cortex was immediately kept on a dry ice and weighed before being stored at −80° C. until Enzyme-linked immunosorbent assay (ELISA) was performed. • 1. Brain tissues were thawed and Tris Buffer Saline containing protease inhibitors (TBS, 4 times by volume) added (0.8 mL/200 mg tissues). • 2. Brain tissue samples were homogenized using glass-Teflon homogenizer at 10 strokes. The resulting homogenates were centrifuged at 15,000 rpm at 4° C. for 60 minutes. • 3. The supernatant was discarded and to the precipitate, 4 times volume (0.8 mL/200 mg tissues) of TBS was added. Again homogenized followed by centrifugation at 15,000 rpm 4° C. for 30 minutes. • 4. From the above centrifuged mixture the supernatant was discarded and 10 times volume of 6M Guanidine-HCl in 50 mM Tris buffer pH: 7.6 (500 μL/50 mg tissues) was added. The resulting solution was sonicated for 5 seconds, 4 times. • 5. Resulting mixture was incubated at the RT for 30 minutes, followed by centrifugation at 15,000 rpm, 4° C. for 30 minutes. From this 5 μL of supernatant solution was taken and diluted with 155 μL of EIA buffer (dilution factor 32). Measurement of sAPPα by ELISA Kit: To investigate the role of an acute treatment of test compound on sAPPα levels, we measured the expression of this protein in homogenates from the cortex of treated and untreated mice by ELISA assay. The entire procedure was followed as described in the ELISA kit manual (Mouse/Rat sAPPα ELISA, Catalog Number: JP27415, […], Hamburg, Germany). Statistical analyses were performed using the Graph Pad Prism (Version 4). Data are Mean±SD of sAPPa levels expressed as percentage of control values (mice which received water for injection). Values were compared between the different groups by using unpaired t test. The significance level was set at *p<0.05; […]; ***<0.001.
# [3] = system: Male Wistar rats; assay: Object recognition task model; assay type: in vivo; details: dose mg/kg: Ex 1 0.1, Ex 2 0.03, Ex 4 0.03, Ex 13 1, Ex 23 0.01, Ex 37 10, Ex 43 0.3
# Method: The cognition enhancing properties of compounds of this invention were estimated by using this model.
# Male Wistar rats (230-280 grams) were used as experimental animals. Four animals were housed in each cage. Animals were kept on 20% food deprivation before one day and given water ad libitum throughout the experiment and maintained on a 12 hours light/dark cycle. Also the rats were habituated to individual arenas for 1 hour in the absence of any objects.
# One group of 12 rats received vehicle (1 mL/Kg) orally and another set of animals received compound of the formula (I) either orally or i.p., before one hour of the familiar (T1) and choice trial (T2).
# The experiment was carried out in a 50×50×50 cm open field made up of acrylic. In the familiarization phase, (T1), the rats were placed individually in the open field for 3 minutes, in which two identical objects (plastic bottles, 12.5 cm height×5.5 cm diameter) covered in yellow masking tape alone (a1 and a2) were positioned in two adjacent corners, 10 cms from the walls. After 24 hours of the (T1) trial for long-term memory test, the same rats were placed in the same arena as they were placed in T1 trial. Choice phase (T2) rats were allowed to explore the open field for 3 minutes in presence of one familiar object (a3) and one novel object (b) (Amber color glass bottle, 12 cm high and 5 cm in diameter). Familiar objects presented similar textures, colors and sizes. During the T1 and T2 trial, explorations of each object (defined as sniffing, licking, chewing or having moving vibrissae whilst directing the nose towards the object at a distance of less than 1 cm) were recorded separately by stopwatch. Sitting on an object was not regarded as exploratory activity, however, it was rarely observed.
# T1 is the total time spent exploring the familiar objects (a1+a2).
# T2 is the total time spent exploring the familiar object and novel object (a3+b).
# The object recognition test was performed as described by Behaviour Brain Research, (1988), 31, 47-59.
# [4] = system: Scopolamine Induced amnesia; assay: Radial arm maze; assay type: in vivo; details: p.o., rats
# Source text: The cognition enhancing properties of compounds of formula (I) of this invention were estimated by using this model.
# Radial arm maze consists of a central hub of 45 cm diameter. Each arm was of dimension 42.5×15×24 cm. The maze was elevated to a height of 1 m above the ground. The animals were placed on a restricted diet until they reached approximately 85% of their free feeding weight. During this diet restriction period animals were habituated to the novel feed (pellets). Once the rats reached approximately 85% of their free feeding weight rats were habituated to the maze on the 1st and 2nd day. […] Animals were randomized on day 2. On the subsequent days the treatment was given as per the allotment: Each animal was introduced into the maze individually for a period of 10 minutes. The arms were baited only once and the animal had to learn the rule that repeated arm entries would not be rewarded. The trial ended once the rat had visited 16 arms or 10 minutes were over or all the pellets were eaten. The arm entries were recorded using the software. Once the trial was over the rat was removed and the maze was cleaned using soap water.
# T1 sequence (Q13639 whole entry): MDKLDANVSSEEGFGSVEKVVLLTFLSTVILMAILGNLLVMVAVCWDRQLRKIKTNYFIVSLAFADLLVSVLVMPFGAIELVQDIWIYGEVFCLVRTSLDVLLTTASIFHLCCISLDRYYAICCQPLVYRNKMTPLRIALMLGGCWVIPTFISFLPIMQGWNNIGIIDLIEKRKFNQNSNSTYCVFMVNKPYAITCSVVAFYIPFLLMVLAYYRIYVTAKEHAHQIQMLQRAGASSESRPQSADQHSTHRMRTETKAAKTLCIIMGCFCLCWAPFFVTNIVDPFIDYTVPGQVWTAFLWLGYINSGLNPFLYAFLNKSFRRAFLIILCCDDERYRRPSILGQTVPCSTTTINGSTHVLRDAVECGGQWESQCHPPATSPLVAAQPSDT
compound,measurement,setting,value
"Nc1c(Cl)cc(C(=O)NCC2CCN(CC3(O)CCOCC3)CC2)c2ncccc12.O=C(O)C(O)C(O)C(=O)O [Example 23, 5-Amino-6-chloro-N-{[1-(4-hydroxytetrahydro-2H-pyran-4-ylmethyl)-4-piperidinyl]methyl}quinoline-8-carboxamide L(+)-tartarate]",Emax,[1],67%
same,increase in the mice brain cortical sAPPα levels,[2]; 0.3 mg/kg,42%
same,increase in the mice brain cortical sAPPα levels,[2]; 1.0 mg/kg,33%
same,"Exploration time mean ± S.E.M, Familiar object","[3]; choice trial T2, p.o.",8.80 ± 1.46 s
same,"Exploration time mean ± S.E.M, Novel object","[3]; choice trial T2, p.o.",16.80 ± 2.45 s
same,Inference,[3]; p.o.,Active
same,Reversal of Scopolamine Induced amnesia - Effective dose range,[4],"0.01-0.1 mg/kg, p.o."

# Source: patent US9790211B2, “5-amino-quinoline-8-carboxamide derivatives as 5-HT4 receptor agonists” (SUVEN LIFE SCIENCES LIMITED, priority 2013, dated 2017)
